Two substances from patent US20110053849A1 (priority 2006, published 2011) can be followed below.

One test deals with LITAF promoter. The test can be described thus: Luciferase reporter assay of LITAF promoter activity in p53-null H1299 cells. It is filed as cell-based, human. Particulars: for Luciferase activity with peptide alone: peptide alone without pGLP700, FIG. 7 #5 and #6. How it is done:
Luciferase assay. […] Cells were then incubated overnight in appropriate media (DMEM or RPMI 1640)+10% FBS at 37° C., in a humidified atmosphere containing 5% CO2. The β-galactosidase gene was included in all transfections. Cells were harvested and the luciferase activity of each lysate was measured (Turner Designs luminometer model TD-20/20) using a commercial kit (luciferase reporter assay system, Promega) according to the protocol provided by the manufacturer. Finally, the data were normalized to β-galactosidase expression.
The promoter activity of pGLP700 alone was assigned the maximal value of 100%. […] Deletions, indicated by ̂, correspond to aa 101-167 in construct A12, aa 167-234 in B1, aa 235-300 in C6 and aa 156-178 in D10. Construct p53LFB12 contained only 7 aa (KQSQHMT [SEQ ID NO: 1]) from the region (aa 164-170).
The proteins extracted from each transfection of construct plus pGLP700 compared to the transfection of pGLP700 alone in p53-null H1299 cells were measured by luciferase assay. Triplicate assays were performed. […] Construct C6, containing aa 167 and its flanking sequences, reduced LITAF promoter activity to 22% of control even though it lacked aa 235-300.
Furthermore, short peptides (pep12) that contain 7 residues (aa 164-170) (KQSQHMT [SEQ ID NO: 1]) corresponding to p53LFB12 and another peptide (pepSC) with reverse sequence of pep12 as a negative control, were synthesized and analyzed using the luciferase assay. Cultures of p53-null H1299 cells (5×10^6) were transfected with pGLP700 (#2-4, #7-12), pGLP550 (#13 and 14) or pGLP500 (#15 and 16) plus p53LFB12 (#4) or plus 12REV (#3) as control using Lipofactamine 2000 (Invitrogen) for 3 hours, washed with PBS and further transfected with peptide, 10 μg/ml (#10, 12, 14 and 16), then cells were incubated in appropriate medium at 37° C. overnight. Luciferase activities of the lysates from each culture of treated cells were measured. The extracts from untreated (#1), pepSC alone (#5), pep12 alone (#6), pGLP700 alone (#2 and 11, pGLP550 alone (#13) or pGLP500 alone (#15) were used as controls. Triplicate assays were performed.
(Reporter assays use an easily measured gene product as a stand-in for the process of interest.)

For a further test, the system named is TNF-α. The test can be described thus: ELISA of LPS-induced TNF-α production in human monocytes. The test is classed as cell-based. The following applies: 0.1 μg/ml E. coli LPS 3 hours, then peptide 16 hours, FIG. 8A. The procedure:
ELISA. Human monocytes (1×10^6) were stimulated with 0.1 μg/ml E. coli LPS for 3 hrs, washed with PBS, then further treated with peptides by Chariot kit (Active Motif, Carlsbad, Calif.). Cells were then incubated overnight in RPMI 1640 medium supplemented with 10% FBS at 37° C., in a humidified atmosphere containing 5% CO2. Culture supernatants were harvested and centrifuged at 1,500×g to remove cell debris, then concentrations of human TNF-α in the supernatant of each treated or untreated control cell condition were measured by ELISA (Abraxis, Warminster, Pa.). The ELISA immunoreactivity was quantified using a VerSaDoc Imaging System (BIO-RAD) and graphed.
To further examine the effects of pep12 on LPS-induced LITAF gene expression and LITAF-dependent TNF-α production, analyses of Western blot and ELISA were performed. Human monocytes (1×10^6) were stimulated with 0.1 μg/ml E. coli LPS for 3 hours and washed with PBS prior to treatment with peptides for 16 hours with either pep12 (#5) or pepSC as control (#4) using a Chariot kit (Active motif, Carlsbad, Calif.) or transfected with no DNA (#1) or with pGLP700 DNA (#2) as negative controls or with p53-1 DNA (#3) as a positive control. […] The supernatants from cell cultures were measured by ELISA (Abraxis, Warminster, Pa.) and the extracts were detected by Western blot with antibodies against LITAF and actin (as a control).

A further test has as its system LITAF. The test can be described thus: Western blot of LPS-induced LITAF gene expression in human monocytes. It is filed as cell-based. Particulars: 0.1 μg/ml E. coli LPS 3 hours, then peptide 16 hours, FIG. 8B lane 5. The procedure:
Western blot analysis. […] Cells were then incubated overnight in RPMI 1640 medium with 10% FBS at 37° C., in a humidified atmosphere containing 5% CO2. The proteins from the treated cells were extracted with lysis buffer (Promega) plus a cocktail of […] (Sigma) following the manufacturer's instructions and suspended in SDS sample buffer, heated at 95° C. for 5 min, then applied to SDS-polyacrylamide gels and detected by Western blotting.
To further examine the effects of pep12 on LPS-induced LITAF gene expression and LITAF-dependent TNF-α production, analyses of Western blot and ELISA were performed. Human monocytes (1×10^6) were stimulated with 0.1 μg/ml E. coli LPS for 3 hours and washed with PBS prior to treatment with peptides for 16 hours with either pep12 (#5) or pepSC as control (#4) using a Chariot kit (Active motif, Carlsbad, Calif.) or transfected with no DNA (#1) or with pGLP700 DNA (#2) as negative controls or with p53-1 DNA (#3) as a positive control. The cells were incubated in appropriate medium at 37° C., 5% CO2 overnight. The supernatants from cell cultures were measured by ELISA (Abraxis, Warminster, Pa.) and the extracts were detected by Western blot with antibodies against LITAF and actin (as a control).
Background: Immunoblotting shows a protein as a band on a membrane.

The test system of a further test is human cytokines. The test can be described thus: Bioplex human monocyte cytokine assay. The test is classed as cell-based. Particulars: E. coli LPS + pep12 (10 µg or 100 υg). How it is done: This assay was performed to determine the effectiveness of the peptide of the present invention [pep12: SEQ ID NO.: 1] to inhibit various human cytokines. The assay performed was a human monocyte assay well known to those practiced in the art. The kit used here (trade name Bioplex) was supplied by Bio-Rad (Hercules, Calif.). Other commercially available assays are known and suitable for use in the assay described here.
Bar (1) is the carrier solution alone (chariot alone); bar (2) is E. coli LPS stimulant; bar (3) is E. coli LPS+pepSC (scramble peptide); bar (4) is E. coli LPS+pep12 (10 υg); bar (5) is E. coli LPS+pep12 (100 υg). The cytokines tested include Human (Hu) IL-2, Hu Il-5, Hu Il-7, Hu Il-12 Hu Eotaxin, Hu Il-13, Hu-PDGF-β, Hu IL-1β, Hu-15, Hu IFN-γ, Hu IP-10, Hu IL-6, Hu RANTES, Hu TNF-α, Hu Il-1ra and Hu VEGF.

[1] abbreviates: peptide 10 μg/ml plus pGLP700, FIG. 7 #7 and #10.

Turning to KQSQHMT [pep12], the LITAF promoter activity result in the test with LITAF promoter (pep12 10 μg/ml plus pGLP500, FIG. 7 #16 vs #15) is given as “did not affect LITAF promoter activity”. The “LITAF promoter activity, % of control” value with LITAF promoter (pep12 10 μg/ml plus pGLP550, FIG. 7 #14 vs #13) is 23%; in the test with LITAF promoter (pep12 10 μg/ml plus pGLP700, FIG. 7 #12 vs #11) it was 15%. In addition, the “LITAF promoter activity (untreated pGLP700 #2 = 100%)” value is reported as 66% with LITAF promoter (peptide 0.1 μg/ml plus pGLP700, FIG. 7 #8); 15% in the test on LITAF promoter (setting [1]); 40% in the test with LITAF promoter (peptide plus pGLP700, FIG. 7 #9, concentration not clearly printed). Also, the “Luciferase activity with peptide alone” value in the test on LITAF promoter is reported as 2.3%. For the same substance, the “LPS-induced TNF-α production, % of control” value in the test with TNF-α is given as not above 70%. Further, the “LPS-induced LITAF gene expression” value in the test on LITAF is “inhibition of LPS-induced LITAF gene expression”. Moreover, the “Concentration of active cytokine: Hu IL-13” value in the test with human cytokines was “only minor reductions”. For the same substance, the “Concentration of active cytokine: Hu PDGF-β” value in the test with human cytokines is listed as “only minor reductions”. The “Concentration of active cytokine: Hu RANTES” value in the test on human cytokines was “only minor reductions”. In addition, in the test on human cytokines (FIGS. 9A-9C), the “Concentration of active cytokine: IL-2, IL-5, IL-7, IL-12, Eotaxin, IL-1β, IL-15, IFN-γ, IP-10, IL-6, TNF-α, IL-1ra, VEGF” value was “significant reduction”.

For the substance SKMQQTH [pepSC, reference compound], the “LITAF promoter activity (untreated pGLP700 #2 = 100%)” value with LITAF promoter (setting [1]) is reported as 95%. The “Luciferase activity with peptide alone” value with LITAF promoter is given as 1.5%. The “LPS-induced TNF-α production, % of control” value with TNF-α is “could not affect LPS-induced TNF-α secretion”.
